Experiments:
[1] = system: Pkd1^fl/fl; Pax8^rtTA; TetO-cre mice; assay: Cyst growth and renal function in Pkd1 knockout mice treated with VX-809; type: in vivo, mouse
Description: (FIG. 1A) Representative images of postnatal day (PND) 21 kidney sections from DMSO- and VX-809-treated mice. Significant reductions occurred in (FIG. 1B) cyst index, (FIG. 1C) kidney weight, and (FIG. 1D) kidney-to-body weight ratio. […] Methods: The total kidney area and total cystic area were measured with ImageJ (provided by NIH). Cystic index=100× (total cystic area/total kidney area) and is expressed as a percentage. Columns represent means±standard error (SEM) for DMSO (vehicle)-treated (n=4-5) and VX-809 mice. *P<0.05; **P<0.01 (for all graphs). Statistical analysis was performed using an unpaired two-tailed Student's t-test;
When treated with doxycycline, these mice express Cre, causing knockout of PC1 (18). […] The dosage of VX-809 injected was lower than the human pediatric dose, which is 500 mg of Lumacaftor per day; the adult dose is 800 mg/day.
Mouse strain and treatment. Pkd1^fl/fl; Pax8^rtTA; TetO-cre mice on a C57BL/6 background (61) were provided by the Baltimore PKD Center. Mice of both sexes were used in this study. Mice were injected IP with doxycycline (Sigma, # D9891) ([…]) on postnatal day 11 (PND11), PND12, and PND13 to produce very rapid and aggressive cyst growth (18,19). On PND21, the mice were euthanized.

Hsp70 = assay: Cycloheximide chase, disappearance of Hsp70 in PN cells; type: cell-based, mouse; settings: VX-809 10 μM with cycloheximide 25 μM
Description: (§1) FIG. 9A, FIG. 9B, FIG. 9C, FIG. 9D, FIG. 9E, FIG. 9F, FIG. 9G, and FIG. 9H show Hsp27, HSp70, and Hsp90 expression in PN cells treated with VX-809 and/or cycloheximide. (A) Pkd1 null (PN) cells were treated with VX-809 (10 μM) and/or with cycloheximide (25 μM) for indicated time points before being harvested for the assay. (FIG. 9A) Western blot showing expression of Hsp27, Hsp70, and Hsp90 in VX-809-(16 h), cycloheximide-treated, or control PN cells. ((FIG. 9B. (FIG. 9C, and (FIG. 9D) Columns represent averages±standard errors of Hsp27, Hsp70, and Hsp90 expression in cells treated with VX-809 and/or cycloheximide. ((FIG. 9E) Western blot showing expression of Hsp27, Hsp70, and Hsp90 in PN cells treated with VX-809+cycloheximide or control PN cells. ((FIG. 9F, (FIG. 9G, and (FIG. 9H) Columns represent averages±standard errors of Hsp27, Hsp70, and Hsp90 expression in cells treated only with cycloheximide or in control PN cells. Data were analyzed by non-parametric t-test. The experiments were repeated 3-5 times. *P<0.05, **P<0.01;
(§2) To gain more insight into the mechanism whereby VX-809 alters Hsp protein levels, translation was inhibited by using cycloheximide (35) and the disappearance of the three Hsps was monitored. […] Hsp 90 was reduced by approximately 25%, and Hsp27 was unchanged.

Hsp27 = assay: Cycloheximide chase, disappearance of Hsp27 in PN cells; type: cell-based, mouse; settings: VX-809 10 μM with cycloheximide 25 μM
Description: as §1, §2

Ero1 = assay: Western blot of ER stress marker Ero1 in kidney tissue; type: in vivo, mouse; settings: cyst induced pkd−/− mice, VX-809 30 mg/kg BW
Description: FIG. 11A. FIG. 11B, FIG. 11C, FIG. 11D, and FIG. 11E show expression of ER stress markers GRP78, ErO1, and GADD in Pkd1^−/− mice treated with VX-809. (FIG. 11A & FIG. 11D) Representative Western blot images of GRP78, ErO1, and GADD in lysates of kidney tissue from no cyst induced (ND), cyst induced with doxycycline (D) or cyst induced pkd−/− mice treated with VX-809 (D+VX-809) 30 mg/kg BW. (FIG. 11B, FIG. 11C and FIG. 11E) Columns represent averages±standard errors of GRP78, ErO1, and GADD153 expression. Data were analyzed by non-parametric t-test. n=4 for each treated and control groups. Black lines between lanes represent representative experiments from the same gel but loaded in different lanes. **P<0.01, ***P<0.001;
Given that VX-809 alters an ensemble of Hsps, it was evaluated whether VX-809 alters proteins associated with ER stress. To address this question, the levels of three ER stress-associated proteins were measured, 78-kDa glucose-regulated protein (GRP78), ER oxidoreductin 1 (Ero1) and DNA damage-inducible protein 3 (GADD153), also known as C/EBP homologous protein (CHOP) (37). The results are depicted in FIG. 11 show no changes in GRP78 or Ero1 in response to VX-809.

NHE3 = NHE3 activity in PN cells; type: cell-based, mouse; settings: PN cells treated with VX-809 vs PN cells
Description: FIG. 15A and FIG. 15B show NHE3 activity in PN and PH cells (FIG. 15A and FIG. 15B) and NHE3 activity in PN cells treated with VX-809.
FIG. 16A, FIG. 16B, and FIG. 16C show NHE activity in PN/PH cells or PN cells treated with VX-809;
The expression and activity of […] were evaluated. Specifically, NHE3 expression was evaluated in PN cells that were treated with VX-809. […] was also studied in PN, PH, and PN cells treated with VX-809. […] Next, NHE3 activity was evaluated in PN/PH cells or PN cells treated with VX-809. NHE3 activity was increased in PN cells treated with VX-809, as compared to PN cells (FIG. 16A). NHE3 activity was higher in control PH cells than in PN cells (FIG. 16B). […] NHE3 activity was increased in both VX-809 treated PN cells and control PH cells, as compared to control PN cells (FIG. 16C).

PC2 = assay: Confocal microscopy localization of PC2; type: cell-based; settings: VX-809 treated vs control cells; ER, Golgi and PM markers
Description: FIG. 17A and FIG. 17B show images of confocal microscopy localization studies of PC2 and localization markers in control and treated cells (FIG. 17A) and graphs showing Pearson's correlation coefficient for PC2 and localization markers in control and VX-809 treated cells (FIG. 17B).
The localization of PC2 and CFTR in control cells was compared to the localization of PC2 and CFTR localization in VX-809 treated cells.

[2] = VX-809 30 mg/kg IP daily PND10 to PND20 vs DMSO-treated mice
[3] = VX-809 30 mg/kg IP daily PND10 to PND20 vs control mice

lumacaftor [VX-809]
overall body weight ([1]; VX-809 30 mg/kg IP daily PND10 to PND20, treated vs untreated groups): no difference in overall body weight
blood urea nitrogen (BUN) [1, 2]: lowered blood urea nitrogen (BUN)
creatinine [1, 2]: lowered
less cyst growth (cyst index) ([1]; VX-809 30 mg/kg IP daily PND10 to PND20 vs DMSO, doxycycline-induced cysts, PND21): ~60.4%
Kidney weight [1, 3]: lower than those of the control mice
kidney-to-body weight ratio [1, 3]: lower than those of the control mice
Hsp70 levels over the 8-h period relative to time 0 (Hsp70): approximately half the level observed at time 0
Hsp27 level over the 8-h period (Hsp27): unchanged
Ero1 expression (Ero1): no changes
NHE3 activity (NHE3): significantly increased
localization of PC2 (PC2): statistically significant move of PC2 from the ER to Golgi

Source: patent US20200289482A1, “CYSTIC FIBROSIS TRANSMEMBRANE CONDUCTANCE REGULATOR MODULATORS FOR TREATING AUTOSOMAL DOMINANT POLYCYSTIC KIDNEY DISEASE” (The Johns Hopkins University, priority 2017, published 2020)
